Patent US9174952B2, “Substituted 3-thiazoloamino-propionic acid derivatives and their use as pharmaceuticals” (SANOFI, priority 2011, dated 2015)

Each compound was assayed against T1, Recombinant human cathepsin A (Homo sapiens, UniProt P10619) (assay: Cathepsin A inhibitory activity). Details: activated recombinant human cathepsin A 833 ng/ml, Bodipy FL-labeled bradykinin substrate 2 μM, pH 5.5, room temperature.
T1 construct: Recombinant human cathepsin A (residues 29-480, with a C-terminal 10-His tag); 10-His (C); purchased R&D Systems 1049-SE
T1 sequence (P10619 29-326 limits assumed): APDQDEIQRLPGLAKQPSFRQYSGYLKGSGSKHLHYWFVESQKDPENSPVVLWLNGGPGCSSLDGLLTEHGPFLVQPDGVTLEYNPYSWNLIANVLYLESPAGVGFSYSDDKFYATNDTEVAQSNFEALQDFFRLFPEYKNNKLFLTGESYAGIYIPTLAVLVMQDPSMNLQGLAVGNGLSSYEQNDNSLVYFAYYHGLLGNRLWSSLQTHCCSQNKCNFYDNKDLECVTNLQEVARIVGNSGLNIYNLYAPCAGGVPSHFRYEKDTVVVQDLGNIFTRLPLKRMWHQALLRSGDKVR
T1 sequence (P10619 327-480 limits assumed): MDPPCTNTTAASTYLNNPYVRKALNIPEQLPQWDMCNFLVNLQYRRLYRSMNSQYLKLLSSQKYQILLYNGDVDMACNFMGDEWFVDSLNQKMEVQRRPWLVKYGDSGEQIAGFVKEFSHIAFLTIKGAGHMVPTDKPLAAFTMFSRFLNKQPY
Format: biochemical
Method: a) Cathepsin A Inhibitory Activity
Recombinant human cathepsin A (residues 29-480, with a C-terminal 10-His tag; R&D Systems, #1049-SE) was proteolytically activated with recombinant human cathepsin L (R&D Systems, #952-CY). Briefly, cathepsin A was incubated at 10 μg/ml with cathepsin L at 1 μg/ml in activation buffer (25 mM 2-(morpholin-4-yl)-ethanesulfonic acid (MES), pH 6.0, containing 5 mM dithiothreitol (DTT)) for 15 min at 37° C. Cathepsin L activity was then stopped by the addition of the cysteine protease inhibitor E-64 (N-(trans-epoxysuccinyl)-L-leucine-4-guanidinobutylamide; Sigma-Aldrich, # E3132; dissolved in activation buffer/DMSO) to a final concentration of 10 μM.
The activated cathepsin A was diluted in assay buffer (25 mM MES, pH 5.5, containing 5 mM DTT) and mixed with the test compound (dissolved in assay buffer containing (v/v) 3% DMSO) or, in the control experiments, with the vehicle in a multiple assay plate. After incubation for 15 min at room temperature, as substrate then bradykinin carrying an N-terminal ®Bodipy FL (4,4-difluoro-5,7-dimethyl-4-bora-3a,4a-diaza-s-indacene-3-propionyl) label (JPT Peptide Technologies GmbH; dissolved in assay buffer) was added to the mixture. The final concentration of cathepsin A was 833 ng/ml and the final concentration of labeled bradykinin 2 μM. After incubation for 15 min at room temperature the reaction was stopped by the addition of stop buffer (130 mM 2-(4-(2-hydroxy-ethyl)-piperazin-1-yl)-ethanesulfonic acid, pH 7.4, containing (v/v) 0.013% ®Triton X-100, 0.13% Coating Reagent 3 (Caliper Life Sciences), 6.5% DMSO and 20 μM ebelactone B (Sigma, # E0886)).
Uncleaved substrate and product were then separated by a microfluidic capillary electrophoresis on a LabChip® 3000 Drug Discovery System (12-Sipper-Chip; Caliper Life Sciences) and quantified by determination of the respective peak areas. Substrate turnover was calculated by dividing product peak area by the sum of substrate and product peak areas, and the enzyme activity and the inhibitory effect of the test compound thus quantified. From the percentage of inhibition of cathepsin A activity observed with the test compound at several concentrations, the inhibitory concentration IC50, i.e. the concentration which effects 50% inhibition of enzyme activity was, calculated.

IC50 | SMILES
14800 nM | COc1ccc([C@H](CC(=O)O)NC(=O)c2csc(-c3ccc(C(F)(F)F)cc3)n2)cc1 [Example 60, (S)-3-(4-Methoxy-phenyl)-3-{[2-(4-trifluoromethyl-phenyl)-thiazole-4-carbonyl]-amino}-propionic acid]
2630 nM | O=C(O)C[C@H](NC(=O)c1csc(-c2ccccc2)n1)c1ccccc1C(F)(F)F [Example 62, (S)-3-[(2-Phenyl-thiazole-4-carbonyl)-amino]-3-(2-trifluoromethyl-phenyl)-propionic acid]
917 nM | O=C(O)C[C@H](NC(=O)c1nc(-c2ccccc2)cs1)c1cccc(Cl)c1 [Example 65, (S)-3-(3-Chloro-phenyl)-3-[(4-phenyl-thiazole-2-carbonyl)-amino]-propionic acid]
455 nM | O=C(O)CC(NC(=O)c1nc(-c2ccccc2)cs1)c1ccccc1Cl (stereo not drawn) [Example 68, 3-(2-Chloro-phenyl)-3-[(4-phenyl-thiazole-2-carbonyl)-amino]-propionic acid]
627 nM | O=C(O)C[C@H](NC(=O)c1nc(-c2ccccc2)cs1)c1ccc(Cl)cc1 [Example 69, (S)-3-(4-Chloro-phenyl)-3-[(4-phenyl-thiazole-2-carbonyl)-amino]-propionic acid]
658 nM | O=C(O)C[C@H](NC(=O)c1csc(-c2ccccc2Cl)n1)c1ccccc1F [Example 76, (S)-3-{[2-(2-Chloro-phenyl)-thiazole-4-carbonyl]-amino}-3-(2-fluoro-phenyl)-propionic acid]
712 nM | O=C(O)C[C@H](NC(=O)c1csc(-c2ccccc2Cl)n1)c1ccccc1C(F)(F)F [Example 77, (S)-3-{[2-(2-Chloro-phenyl)-thiazole-4-carbonyl]-amino}-3-(2-trifluoromethyl-phenyl)-propionic acid]
705 nM | COc1cccc([C@H](CC(=O)O)NC(=O)c2csc(-c3ccccc3Cl)n2)c1 [Example 79, (S)-3-{[2-(2-Chloro-phenyl)-thiazole-4-carbonyl]-amino}-3-(3-methoxy-phenyl)-propionic acid]
> 10000 nM | O=C(N[C@@H](Cc1ccc(Cl)cc1)C(=O)O)c1csc(-c2ccccc2Cl)n1 [Example 81, (S)-3-(4-Chloro-phenyl)-2-{[2-(2-chloro-phenyl)-thiazole-4-carbonyl]-amino}-propionic acid]
1350 nM | O=C(O)C[C@H](NC(=O)c1csc(-c2ccccc2F)n1)c1ccccc1C(F)(F)F [Example 84, (S)-3-{[2-(2-Fluoro-phenyl)-thiazole-4-carbonyl]-amino}-3-(2-trifluoromethyl-phenyl)-propionic acid]
878 nM | COc1cccc([C@H](CC(=O)O)NC(=O)c2csc(-c3ccccc3F)n2)c1 [Example 85, (S)-3-{[2-(2-Fluoro-phenyl)-thiazole-4-carbonyl]-amino}-3-(3-methoxy-phenyl)-propionic acid]
975 nM | COc1ccc([C@H](CC(=O)O)NC(=O)c2csc(-c3ccccc3F)n2)cc1 [Example 86, (S)-3-{[2-(2-Fluoro-phenyl)-thiazole-4-carbonyl]-amino}-3-(4-methoxy-phenyl)-propionic acid]
117 nM | Cc1ccccc1[C@H](CC(=O)O)NC(=O)c1csc(-c2ccccc2F)n1 [Example 87, (S)-3-{[2-(2-Fluoro-phenyl)-thiazole-4-carbonyl]-amino}-3-o-tolyl-propionic acid]
923 nM | O=C(O)C[C@H](NC(=O)c1csc(-c2ccccc2F)n1)c1ccccc1 [Example 88, (S)-3-{[2-(2-Fluoro-phenyl)-thiazole-4-carbonyl]-amino}-3-phenyl-propionic acid]

Second part, the compound before the results:

SMILES | IC50
Cc1ccccc1-c1nc(C(=O)N[C@@H](CC(=O)O)c2ccccc2C(F)(F)F)cs1 [Example 61, (S)-3-[(2-o-Tolyl-thiazole-4-carbonyl)-amino]-3-(2-trifluoromethyl-phenyl)-propionic acid] | 670 nM
Cc1ccccc1[C@H](CC(=O)O)NC(=O)c1csc(-c2ccccc2)n1 [Example 63, (S)-3-[(2-Phenyl-thiazole-4-carbonyl)-amino]-3-o-tolyl-propionic acid] | 61 nM
COc1cccc([C@H](CC(=O)O)NC(=O)c2csc(-c3cccc(Cl)c3Cl)n2)c1OC [Example 64, (S)-3-{[2-(2,3-Dichloro-phenyl)-thiazole-4-carbonyl]-amino}-3-(2,3-dimethoxy-phenyl)-propionic acid] | 154 nM
O=C(O)C[C@H](NC(=O)c1csc(-c2cccc(Cl)c2Cl)n1)c1ccccc1C(F)(F)F [Example 66, (S)-3-{[2-(2,3-Dichloro-phenyl)-thiazole-4-carbonyl]-amino}-3-(2-trifluoromethyl-phenyl)-propionic acid] | 619 nM
O=C(O)C[C@H](NC(=O)c1csc(-c2cccc(Cl)c2Cl)n1)c1cccc(F)c1 [Example 67, (S)-3-{[2-(2,3-Dichloro-phenyl)-thiazole-4-carbonyl]-amino}-3-(3-fluoro-phenyl)-propionic acid] | 254 nM
Cc1ccc(-c2nc(C)c(C(=O)N[C@@H](CC(=O)O)c3ccccc3C)s2)cc1 [Example 70, (S)-3-[(4-Methyl-2-p-tolyl-thiazole-5-carbonyl)-amino]-3-o-tolyl-propionic acid] | > 10000 nM
Cc1ccccc1[C@H](CC(=O)O)NC(=O)c1csc(-c2cccc(Cl)c2Cl)n1 [Example 71, (S)-3-{[2-(2,3-Dichloro-phenyl)-thiazole-4-carbonyl]-amino}-3-o-tolyl-propionic acid] | 126 nM
Cc1ccccc1-c1nc(C(=O)N[C@@H](Cc2ccc(Cl)cc2)C(=O)O)cs1 [Example 72, (S)-3-(4-Chloro-phenyl)-2-[(2-o-tolyl-thiazole-4-carbonyl)-amino]-propionic acid] | 16600 nM
O=C(O)C[C@H](NC(=O)c1csc(-c2ccccc2Cl)n1)c1cccc(Cl)c1Cl [Example 73, (S)-3-{[2-(2-Chloro-phenyl)-thiazole-4-carbonyl]-amino}-3-(2,3-dichloro-phenyl)-propionic acid] | 70 nM
COc1cccc([C@H](CC(=O)O)NC(=O)c2csc(-c3ccccc3Cl)n2)c1OC [Example 74, (S)-3-{[2-(2-Chloro-phenyl)-thiazole-4-carbonyl]-amino}-3-(2,3-dimethoxy-phenyl)-propionic acid] | 111 nM
O=C(O)C[C@H](NC(=O)c1csc(-c2ccccc2Cl)n1)c1ccc(Cl)cc1Cl [Example 75, (S)-3-{[2-(2-Chloro-phenyl)-thiazole-4-carbonyl]-amino}-3-(2,4-dichloro-phenyl)-propionic acid] | 288 nM
O=C(O)C[C@H](NC(=O)c1csc(-c2ccccc2Cl)n1)c1cccc(F)c1 [Example 78, (S)-3-{[2-(2-Chloro-phenyl)-thiazole-4-carbonyl]-amino}-3-(3-fluoro-phenyl)-propionic acid] | 257 nM
O=C(O)C[C@H](NC(=O)c1csc(-c2ccccc2Cl)n1)c1ccc(F)cc1 [Example 80, (S)-3-{[2-(2-Chloro-phenyl)-thiazole-4-carbonyl]-amino}-3-(4-fluoro-phenyl)-propionic acid] | 148 nM
Cc1ccccc1[C@H](CC(=O)O)NC(=O)c1csc(-c2ccccc2Cl)n1 [Example 82, (S)-3-{[2-(2-Chloro-phenyl)-thiazole-4-carbonyl]-amino}-3-o-tolyl-propionic acid] | 30 nM
O=C(O)C[C@H](NC(=O)c1csc(-c2ccccc2Cl)n1)c1ccccc1 [Example 83, (S)-3-{[2-(2-Chloro-phenyl)-thiazole-4-carbonyl]-amino}-3-phenyl-propionic acid] | 186 nM
O=C(O)C[C@H](NC(=O)c1csc(-c2cccc(Cl)c2)n1)c1cccc(Cl)c1Cl [Example 89, (S)-3-{[2-(3-Chloro-phenyl)-thiazole-4-carbonyl]-amino}-3-(2,3-dichloro-phenyl)-propionic acid] | 1020 nM
